Measured values as given in patent EP4603105A1, “PHARMACEUTICAL COMPOSITION CONTAINING CYCLIC COMPOUND HAVING SELECTIVE KRAS INHIBITORY EFFECT AGAINST HRAS AND NRAS” (CHUGAI SEIYAKU KABUSHIKI KAISHA, priority 2022, dated 2024).
*1 amine or outer side, *2 acyl side, *3 side chain or, on linkers, in order; H or OH if unused. Where a SMILES comes first, the peptide text is derived from it. Bridges are numbered along the chain shown (N, C = ends). [ ]: non-standard residue; d: D form. The star is where a group is joined. hPhe(3,5-F2-4-CF3) = N[C@@H](CCc1cc(F)c(C(F)(F)F)c(F)c1)C(=O)O; hPhe(3-Cl-4-CF3) = N[C@@H](CCc1ccc(C(F)(F)F)c(Cl)c1)C(=O)O; NPrPhe(4-CF3) = CCCN[C@@H](Cc1ccc(C(F)(F)F)cc1)C(=O)O; X37 = Cc1ccc(C[C@@H](C(=O)[*:2])N(CCC(C)C)[*:1])cc1; NMeGly(cPent) = CN[C@H](C(=O)O)C1CCCC1; Ac4c(3,3-F2) = NC1(C(=O)O)CC(F)(F)C1; NMeD = CN[C@@H](CC(=O)O)C(=O)O; NMeL = CN[C@@H](CC(C)C)C(=O)O; Morpholide = C1CN(*)CCO1; NMeA = CN[C@@H](C)C(=O)O; Ac5c = NC1(C(=O)O)CCCC1; Aze = O=C(O)[C@@H]1CCN1; Sar = CNCC(=O)O

Assays:
[1] = molecular target: GDP-bound NRAS wild-type protein (Homo sapiens, UniProt P01111); assay: Binding to NRAS by surface plasmon resonance (SPR), KD and KD ratio to KRAS
Outline: (§1)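 Running buffer contained 10 µM GDP and 10 mM MgCl2 to keep RAS in the GDP state, with 4% DMSO at pH 7.4. Compounds were flowed at 100 µL/min in 75 s steps of rising concentration over captured biotin-Avi RAS at 30°C. Sensorgrams were fitted 1:1 for KD.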

HRAS wild-type protein = HRAS wild-type protein (Homo sapiens, UniProt P01112); assay: Binding to HRAS by surface plasmon resonance (SPR), KD and KD ratio to KRAS
Outline: as §1

[2] = tested on: human lung cancer strain NCI-H441; assay type: cell-based
Outline: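 Step one: dispense the test compound in serial DMSO dilutions. Step three: add the reagent and measure […].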

[3] = ratio of KD value for GDP-bound NRAS wild-type protein to KD value for KRAS (SPR)
[4] = ratio of KD value for HRAS wild-type protein to KD value for KRAS (SPR)
[5] = ratio of KD for GDP-bound NRAS wild-type protein to KD for KRAS
[6] = ratio of KD for HRAS wild-type protein to KD for KRAS

Chain of HRAS wild-type protein (P01112 whole entry): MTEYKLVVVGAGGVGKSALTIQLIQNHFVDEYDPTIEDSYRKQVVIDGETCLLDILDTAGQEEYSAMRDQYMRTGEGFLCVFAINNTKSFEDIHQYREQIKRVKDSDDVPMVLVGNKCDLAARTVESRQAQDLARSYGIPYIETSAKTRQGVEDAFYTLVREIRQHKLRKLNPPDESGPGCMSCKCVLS
Chain of GDP-bound NRAS wild-type protein (P01111 whole entry): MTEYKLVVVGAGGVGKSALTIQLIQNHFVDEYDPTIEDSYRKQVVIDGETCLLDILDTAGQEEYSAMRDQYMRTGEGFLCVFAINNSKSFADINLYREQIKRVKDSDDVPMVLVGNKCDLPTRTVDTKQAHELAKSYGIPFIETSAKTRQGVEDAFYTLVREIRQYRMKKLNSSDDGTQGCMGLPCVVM

Compound | NRAS /KRAS [1, 3] | HRAS /KRAS (HRAS wild-type protein; [4]) | IC50 [2] [nM] | NRAS /KRAS [1, 5] | HRAS /KRAS (HRAS wild-type protein; [6]) | NRAS /KRAS ([1]; ratio of the KD value with respect to GDP-bound NRAS wild-type protein to the KD value with respect to KRAS) | HRAS /KRAS (HRAS wild-type protein; ratio of the KD value with respect to HRAS wild-type protein to the KD value with respect to KRAS)
CCC[C@H]1C(=O)N[C@@H]([C@@H](C)CC)C(=O)N(C)CC(=O)N(C)[C@H]2C/C=C\CCN(C2=O)[C@@H](Cc2ccc(C(F)(F)F)cc2)C(=O)N(C)CC(=O)N[C@@H](CCc2ccc(C(F)(F)F)c(Cl)c2)C(=O)N2C[C@H](OCC)C[C@H]2C(=O)NC2(CC(C)(C)C2)C(=O)N(C)[C@@H](C2CCCC2)C(=O)N(C)[C@H](C(=O)N(C)C)CC(=O)N1C [PP1748] | A (a compound having 10 or more and less than 20 is denoted as A) | B (a compound having 3 or more and less than 10 is denoted as B) | 3.1 |  |  |  | 
CC[C@H](C)[C@@H]1NC(=O)[C@H](COC)N(C)C(=O)C[C@@H](C(=O)N2CCOCC2)N(C)C(=O)[C@H](C2CCCC2)N(C)C(=O)C2(CCCC2)NC(=O)[C@@H]2CCCN2C(=O)[C@H](CCc2ccc(C(F)(F)F)c(Cl)c2)NC(=O)CN(C)C(=O)[C@H](Cc2ccc(F)cc2)N2CCCCC[C@@H](C2=O)N(C)C(=O)CN(C)C1=O [PP0960] |  |  | 101 | B (a compound having 3 or more and less than 10 is denoted as B) | B (a compound having 3 or more and less than 10 is denoted as B) |  | 
CCC(CC)[C@H]1C(=O)N(C)[C@H](C(=O)N(C)C)CC(=O)N(C)[C@H]2CCC/C=C/c3ccc(cc3)C[C@@H](C(=O)N(C)CC(=O)N[C@@H](CCc3cc(F)c(C(F)(F)F)c(F)c3)C(=O)N3CCC[C@H]3C(=O)NC3(CC(C)(C)C3)C(=O)N1C)N1CC/C=C\C[C@@H](C1=O)N(C)C(=O)CN(C)C(=O)[C@H]([C@@H](C)CC)NC2=O [PP2600] |  |  | 2.9 | A (a compound having 10 or more and less than 20 is denoted as A) | A (a compound having 10 or more and less than 20 is denoted as A) |  | 
CC[C@H](C)[C@@H]1NC(=O)[C@H](CC(C)C)N(C)C(=O)C[C@@H](C(=O)N(C)C)N(C)C(=O)[C@H](C2CCCC2)N(C)C(=O)C2(CCCC2)NC(=O)[C@@H]2CCCN2C(=O)[C@H](CCc2cc(F)c(C(F)(F)F)c(F)c2)NC(=O)CN(C)C(=O)[C@H](Cc2ccc(C(F)(F)F)cc2)N2CCCC[C@@H](C2=O)N(C)C(=O)CN(C)C1=O [PP0569] |  |  | 2.8 |  |  | C (A compound having a KD ratio of 0.1 or more and less than 3 is denoted as C) | B (a compound having 3 or more and less than 10 is denoted as B)
CC[C@H](C)[C@@H]1NC(=O)[C@H](CC(C)C)N(C)C(=O)C[C@@H](C(=O)N2CCOCC2)N(C)C(=O)[C@H](C2CCCC2)N(C)C(=O)C2(CCCC2)NC(=O)[C@@H]2CCCN2C(=O)[C@H](CCc2ccc(C(F)(F)F)c(Cl)c2)NC(=O)CN(C)C(=O)[C@H](Cc2ccc(C)cc2)N(CCC(C)C)C(=O)[C@@H]2CCN2C(=O)[C@H](C)N(C)C1=O [PP0086] ([NMeL]I[NMeA][Aze][X37][Sar][hPhe(3-Cl-4-CF3)]P[Ac5c][NMeGly(cPent)][NMeD]-Morpholide; lactam N-11) |  |  | 6.4 | C (A compound having a KD ratio of 0.1 or more and less than 3 is denoted as C) | B (a compound having 3 or more and less than 10 is denoted as B) |  | 
CCCN(C)C(=O)[C@@H]1CC(=O)N(C)[C@@H](COC)C(=O)N[C@@H]([C@@H](C)CC)C(=O)N(C)CC(=O)N(C)[C@H]2C/C=C\CCN(C2=O)[C@@H](Cc2ccc(C(F)(F)F)cc2)C(=O)N(C)CC(=O)N[C@@H](CCc2cc(F)c(Cl)c(F)c2)C(=O)N2C[C@H](OCC)C[C@H]2C(=O)NC2(CC(C)(C)C2)C(=O)N(C)[C@@H](C2CCCC2)C(=O)N1C [PP1763] | A (a compound having 10 or more and less than 20 is denoted as A) | A (a compound having 10 or more and less than 20 is denoted as A) | 13.3 |  |  |  | 
CCCN1C(=O)CN(C)C(=O)[C@@H]2CCN2C(=O)[C@H]([C@@H](C)CC)NC(=O)[C@H](CC(C)C)N(C)C(=O)C[C@@H](C(=O)N2CCOCC2)N(C)C(=O)[C@H](C2CCCC2)N(C)C(=O)C2(CC(F)(F)C2)NC(=O)[C@@H]2CCCN2C(=O)[C@H](CCc2cc(F)c(C(F)(F)F)c(F)c2)NC(=O)CN(C)C(=O)[C@@H]1Cc1ccc(C(F)(F)F)cc1 [PP0783] ([NMeL]I[Aze][Sar][NPrPhe(4-CF3)][Sar][hPhe(3,5-F2-4-CF3)]P[Ac4c(3,3-F2)][NMeGly(cPent)][NMeD]-Morpholide; lactam N-11) |  |  | 122 | B (a compound having 3 or more and less than 10 is denoted as B) | B (a compound having 3 or more and less than 10 is denoted as B) |  | 
CCCN1C(=O)CN(C)C(=O)CN(C)C(=O)[C@H]([C@@H](C)CC)NC(=O)[C@@H]2CCCCCCC[C@@H](NC(=O)[C@@H]3C[C@@H](OCC)CN3C(=O)[C@H](CCc3cc(F)c(C(F)(F)F)c(F)c3)NC(=O)CN(C)C(=O)[C@@H]1Cc1ccc(C(F)(F)F)cc1)C(=O)N(C)[C@@H](C1CCCC1)C(=O)N(C)[C@H](C(=O)N(C)C)CC(=O)N2C [PP0925] |  |  | 91 | A (a compound having 10 or more and less than 20 is denoted as A) | B (a compound having 3 or more and less than 10 is denoted as B) |  | 
CC[C@H](C)[C@@H]1NC(=O)[C@H](CC)N(C)C(=O)C[C@@H](C(=O)N(C)C)N(C)C(=O)[C@H](C2CCCC2)N(C)C(=O)C2(CC(C)(C)C2)NC(=O)[C@@H]2C[C@H](C)CN2C(=O)[C@H](CCc2ccc(C(F)(F)F)c(OC)c2)NC(=O)CN(C)C(=O)[C@H](Cc2ccc(C)cc2)N2CC/C=C\C[C@@H](C2=O)N(C)C(=O)CN(C)C1=O [PP1836] | A (a compound having 10 or more and less than 20 is denoted as A) | B (a compound having 3 or more and less than 10 is denoted as B) | 10.7 |  |  |  | 
CCO[C@@H]1C[C@H]2C(=O)NC3(CC(C)(C)C3)C(=O)N(C)[C@@H](C3CCCC3)C(=O)N(C)[C@H](C(=O)N3CCCC3)CC(=O)N(C)[C@H]3CCC/C=C/c4ccc(cc4)C[C@@H](C(=O)N(C)CC(=O)N[C@@H](CCc4cc(F)c(C(F)(F)F)c(F)c4)C(=O)N2C1)N1CC/C=C\C[C@@H](C1=O)N(C)C(=O)CN(C)C(=O)[C@H]([C@@H](C)CC)NC3=O [PP2574] |  |  | 4.2 | A (a compound having 10 or more and less than 20 is denoted as A) | A (a compound having 10 or more and less than 20 is denoted as A) |  | 
CC[C@H](C)[C@@H]1NC(=O)[C@@H]2CCCc3ccc(cc3)C[C@@H](C(=O)N(C)CC(=O)N[C@@H](CCc3ccc(C(F)(F)F)c(OC)c3)C(=O)N3C[C@H](OC4CCC4)C[C@H]3C(=O)NC3(CC(C)(C)C3)C(=O)N(C)[C@@H](C3CCCC3)C(=O)N(C)[C@H](C(=O)N(C)CC)CC(=O)N2C)N2CC/C=C\C[C@@H](C2=O)N(C)C(=O)CN(C)C1=O [PP3085] |  |  | 6.3 | A (a compound having 10 or more and less than 20 is denoted as A) | B (a compound having 3 or more and less than 10 is denoted as B) |  | 
CCO[C@@H]1C[C@H]2C(=O)NC3(CCC3)C(=O)N(C)[C@@H](C3CCCC3)C(=O)N(C)[C@H](CC)CC(=O)N(C)[C@@H](CC3CC3)C(=O)N[C@@H]([C@@H](C)CC)C(=O)N(C)CC(=O)N(C)[C@H]3C/C=C\CCN(C3=O)C(Cc3ccc(C(F)(F)F)cc3)C(=O)N(C)CC(=O)N[C@@H](CCc3cc(F)c(C(F)(F)F)c(F)c3)C(=O)N2C1 (stereo partly drawn) [PP1631] | A (a compound having 10 or more and less than 20 is denoted as A) | B (a compound having 3 or more and less than 10 is denoted as B) | 17.6 |  |  |  | 
CCC[C@H]1C(=O)N[C@@H]([C@@H](C)CC)C(=O)N(C)CC(=O)N(C)[C@H]2C/C=C\CCN(C2=O)[C@@H](Cc2ccc(C(F)(F)F)cc2)C(=O)N(C)CC(=O)N[C@@H](CCc2ccc(C(F)(F)F)c(Cl)c2)C(=O)N2CC3(CC3)C[C@H]2C(=O)NC2(CC(C)(C)C2)C(=O)N(C)[C@@H](CC(C)(C)C)C(=O)N(C)[C@H](C(=O)N(C)C)CC(=O)N1C [PP2979] |  |  | 5 | A (a compound having 10 or more and less than 20 is denoted as A) | B (a compound having 3 or more and less than 10 is denoted as B) |  | 
CCO[C@@H]1C[C@H]2C(=O)NC3(CCC3)C(=O)N(C)[C@@H](C(CC)CC)C(=O)N(C)[C@H](CC)CC(=O)N(C)[C@@H](CC)C(=O)N[C@@H]([C@@H](C)CC)C(=O)N(C)CC(=O)N(C)[C@H]3C/C=C\CCN(C3=O)[C@@H](Cc3ccc(C(F)(F)F)cc3)C(=O)N(C)CC(=O)N[C@@H](CCc3cc(F)c(C(F)(F)F)c(F)c3)C(=O)N2C1 [PP1624] | A (a compound having 10 or more and less than 20 is denoted as A) | A (a compound having 10 or more and less than 20 is denoted as A) | 55.8 |  |  |  | 
